Measurements reported in ChEMBL document CHEMBL3885861, “Open TG-GATES”.

Organism: Rattus norvegicus
Assay: Open TG-GATES - Regimen: Single
Assay type: toxicity, organism-based, Sprague-Dawley
Set-up: regimen Single, gender Male, age 6 weeks
Conditions: in vivo, po, 0 mg/kg, route gavage, dose level Control; for Bas / Eos / Fbg / Hb / Ht / Lym / MCH / MCHC / Mono / Neu / PT / Plat / RBC / Ret / WBC: tissue Blood; for KIDNEY_L / KIDNEY_R / KIDNEY_TOTAL: tissue Kidney; for LIVER: tissue Liver; for ALP / ALT / AST / BUN / CRE / Ca / DBIL / IP / K / LDH / Na / PL / RALB / TBIL / TC / TG / TP / gamma-GTP: tissue Plasma

CCC(C)(C)C(=O)O[C@H]1C[C@@H](C)C=C2C=C[C@H](C)[C@H](CC[C@@H]3C[C@@H](O)CC(=O)O3)[C@H]21 [SIMVASTATIN]
TERMINAL_BW (3 h): 203.4 g | Bas (3 h): 0% | Eos (3 h): 1% | Fbg (3 h): 216.8 mg/dL | Hb (3 h): 12.9 g/dL | Ht (3 h): 39.1% | Lym (3 h): 83.6% | MCH (3 h): 21.5 pg | MCHC (3 h): 32.8% | Mono (3 h): 6% | Neu (3 h): 9.6% | PT (3 h): 11 s | Plat (3 h): 101.5 x10_4/uL | RBC (3 h): 596.2 x10_4/ul | Ret (3 h): 7.8% | WBC (3 h): 114.1 x10_2/uL | KIDNEY_L (3 h): 0.9 g | KIDNEY_R (3 h): 1 g | KIDNEY_TOTAL (3 h): 1.9 g | LIVER (3 h): 9.7 g | ALP (3 h): 839.8 IU/L | ALT (3 h): 35.4 IU/L | AST (3 h): 61.6 IU/L | BUN (3 h): 14.4 mg/dL | CRE (3 h): 0.6 mg/dL | Ca (3 h): 11 mg/dL | DBIL (3 h): 0.02 mg/dL | IP (3 h): 9.1 mg/dL | K (3 h): 4.4 meq/L | LDH (3 h): 82.2 IU/L | Na (3 h): 138.8 meq/L | PL (3 h): 147.4 mg/dL | RALB (3 h): 3.5 g/dL | TBIL (3 h): 0.4 mg/dL | TC (3 h): 83.8 mg/dL | TG (3 h): 63.6 mg/dL | TP (3 h): 5.6 g/dL | gamma-GTP (3 h): 1.6 IU/L | TERMINAL_BW (6 h): 199.1 g | Bas (6 h): 0% | Eos (6 h): 1% | Fbg (6 h): 208.2 mg/dL | Hb (6 h): 13 g/dL | Ht (6 h): 39.5% | Lym (6 h): 79.8% | MCH (6 h): 21.8 pg | MCHC (6 h): 32.8% | Mono (6 h): 6.2% | Neu (6 h): 13% | PT (6 h): 11.8 s | Plat (6 h): 111.5 x10_4/uL | RBC (6 h): 597.2 x10_4/ul | Ret (6 h): 9.2% | WBC (6 h): 109.4 x10_2/uL | KIDNEY_L (6 h): 0.9 g | KIDNEY_R (6 h): 0.9 g | KIDNEY_TOTAL (6 h): 1.7 g | LIVER (6 h): 8.5 g | ALP (6 h): 648 IU/L | ALT (6 h): 29 IU/L | AST (6 h): 60.4 IU/L | CRE (6 h): 0.5 mg/dL | Ca (6 h): 10.8 mg/dL | DBIL (6 h): 0.046 mg/dL | IP (6 h): 9.4 mg/dL | K (6 h): 4.5 meq/L | LDH (6 h): 77 IU/L | Na (6 h): 137.8 meq/L | PL (6 h): 120.4 mg/dL | RALB (6 h): 3.6 g/dL | TBIL (6 h): 0.4 mg/dL | TC (6 h): 70.6 mg/dL | TG (6 h): 47.8 mg/dL | TP (6 h): 5.5 g/dL | gamma-GTP (6 h): 1 IU/L | TERMINAL_BW (9 h): 197.5 g | Bas (9 h): 0% | Eos (9 h): 1% | Fbg (9 h): 215.2 mg/dL | Hb (9 h): 13.2 g/dL | Ht (9 h): 40.2% | Lym (9 h): 85.6% | MCHC (9 h): 32.9% | Mono (9 h): 5.4% | Neu (9 h): 8.2% | PT (9 h): 11.7 s | Plat (9 h): 114.5 x10_4/uL | RBC (9 h): 605.4 x10_4/ul | Ret (9 h): 10.2% | WBC (9 h): 96.4 x10_2/uL | KIDNEY_L (9 h): 0.9 g | KIDNEY_R (9 h): 0.9 g | KIDNEY_TOTAL (9 h): 1.8 g | LIVER (9 h): 8.4 g | ALP (9 h): 810.4 IU/L | ALT (9 h): 29.2 IU/L | AST (9 h): 58.4 IU/L | BUN (9 h): 12.2 mg/dL | CRE (9 h): 0.6 mg/dL | Ca (9 h): 10.9 mg/dL | DBIL (9 h): 0.04 mg/dL | IP (9 h): 10.9 mg/dL | K (9 h): 4.6 meq/L | LDH (9 h): 68.2 IU/L | Na (9 h): 137.6 meq/L | PL (9 h): 110.8 mg/dL | RALB (9 h): 3.7 g/dL | TBIL (9 h): 0.4 mg/dL | TC (9 h): 61.8 mg/dL | TG (9 h): 34.2 mg/dL | TP (9 h): 5.2 g/dL | gamma-GTP (9 h): 1.8 IU/L | TERMINAL_BW (24 h): 215.6 g | Bas (24 h): 0% | Eos (24 h): 1% | Fbg (24 h): 222.6 mg/dL | Hb (24 h): 13 g/dL | Ht (24 h): 40.1% | Lym (24 h): 82.8% | MCHC (24 h): 32.5% | Mono (24 h): 8.2% | Neu (24 h): 8.4% | Plat (24 h): 113.8 x10_4/uL | RBC (24 h): 614 x10_4/ul | Ret (24 h): 9.5% | KIDNEY_L (24 h): 1 g | KIDNEY_R (24 h): 1 g | KIDNEY_TOTAL (24 h): 2 g | ALP (24 h): 887.6 IU/L | ALT (24 h): 38.8 IU/L | AST (24 h): 65 IU/L | BUN (24 h): 18.6 mg/dL | CRE (24 h): 0.6 mg/dL | Ca (24 h): 10.8 mg/dL | DBIL (24 h): 0.05 mg/dL | IP (24 h): 8 mg/dL | K (24 h): 4.6 meq/L | LDH (24 h): 97.8 IU/L | Na (24 h): 139.4 meq/L | PL (24 h): 144.8 mg/dL | RALB (24 h): 3.7 g/dL | TBIL (24 h): 0.4 mg/dL | TC (24 h): 79.6 mg/dL
